{
  "source": "patent US20050220800A1",
  "about": "“Cytokines and cytokine receptors with reduced immunogenicity” (priority 2002, published 2005)",
  "key": {"[1]": {"test_system": "human CD4+ T-cells", "test": "I-MUNE assay of soluble human TNF-R1 peptides", "assay_type": "cell-based", "conditions": "FIG. 10", "procedure": "Peptides for use in the I-MUNE® assay as described in Example 3 were prepared based on the sequence of the soluble human tumor necrosis factor receptor 1 (TNF-R1) (GenBank Accession No. P19438) with the sequence:\nThe background was determined to be 2.23 and the value for three standard deviations was 8.07. This epitope has the sequence CSLCLNGTVHLSCQE (SEQ ID NO:107). […] This variant was then reported to have a reduced immunogenic capacity when tested in a non-human primate (See, Rosenberg et al., J. Appl. Physiol., 91:2213-2223 [2001]). Thus, it is contemplated that modifications in this epitope will provide advantages in the development of sTNFR-1 for use in treatment."}, "[2]": {"test_system": "human CD4+ T-cells", "test": "I-MUNE assay of human erythropoietin peptides", "assay_type": "cell-based", "conditions": "59 donors; FIG. 11", "procedure": "Peptides for use in the I-MUNE® assay as described in Example 3 were prepared based on the sequence of human erythropoietin (EPO), (GenBank Accession No. P1588), with the sequence:\nThe I-MUNE® assay described in Example 3, was conducted using cells obtained from 59 donors. FIG. 11 provides a graph showing the data obtained in the I-MUNE® assay with the pepset produced from the EPO sequence above (SEQ ID NO:108). […] Peptide #34 has the sequence SGLRSLTTLLRALGA (SEQ ID NO:109), and peptide #48 has the sequence FRVYSNFLRGKLKLY (SEQ ID NO:110). As active mutants have been made in the region represented by peptides #34 and #48 (See, Elliott et al., 89:493-502 [1997]), it is contemplated that amino acid modifications in or around these peptides will provide variant EPO suitable for use as an EPO substitute."}, "[3]": {"test_system": "human CD4+ T-cells", "test": "I-MUNE assay of human thrombopoietin peptides", "assay_type": "cell-based", "procedure": "Peptides for use in the I-MUNE® assay as described in Example 3 were prepared based on the sequence of the first 152 residues of human thrombopoietin (i.e., the active domain of TPO), as well as the entire TPO sequence, including the CHO binding domain (GenBank Accession No. P40225) with the sequence:\nThe I-MUNE® assay described in Example 3, was conducted using cells obtained from 99 donors. The background was determined to be 2.5, and the standard deviation was 9.2. FIG. 7 provides a graph showing the data obtained in the I-MUNE® assay with the first 152 residues of TPO (i.e., the active domain).\nFIG. 8 provides a graph showing the results for the I-MUNE® assay conducted using the entire TPO molecule, including the CHO binding domain.\nFIG. 9, Panels A and B provide graphs showing the results for TPO epitope #45, in which the critical residues were tested. The average parental residue response was 9.18±1.82. Values less that 3.5% were equivalent to 3 standard deviations under the averaged response of the parent peptides."}, "[4]": {"test_system": "human CD4+ T-cells", "test": "I-MUNE assay of IFN-β variant peptides", "assay_type": "cell-based", "conditions": "for status on additional testing: FIG. 5", "procedure": "A set of variant peptides was ordered based on the sequences of peptides #1 (SEQ ID NO:2), #27 (SEQ ID NO:28), and #40 (SEQ ID NO:41). An alanine scan was performed for each peptide. In addition, variant peptides were ordered that corresponded to the peptide sequences as described by Runkel et al., (Runkel et al., Biochem., 39:2538-2551 [2000]). These variant peptides were synthesized by Mimotopes (San Diego, Calif.) using the multi-pin synthesis technique known in the art (See e.g., Maeji et al., J. Immunol. Meth., 134:23-33 [1990]).\nThe I-IMUNE® assay was performed as described in Example 3, utilizing the variant peptides on a set of 103 donor samples. […] Epitope #40 returned a consistent donor response percent of 15%."}, "[5]": {"test_system": "human CD4+ T-cells", "test": "I-MUNE assay of IFN-β 15mer peptides (T-cell proliferation)", "assay_type": "cell-based", "conditions": "percent of donors with proliferative response at least 2.95 times baseline; 87 donors; 5 μM peptide", "procedure": "Fresh human peripheral blood cells were collected from 87 humans of unknown exposure status to IFN-β. These cells were tested to determine antigenic epitopes in IFN-β, as described in Example 3.\nPeripheral mononuclear blood cells (stored at room temperature, no older than 24 hours) were prepared for use as follows: Approximately 30 mls of a solution of buffy coat preparation from one unit of whole blood was brought to 50 ml with Dulbecco's phosphate buffered solution (DPBS) and split into two tubes. The samples were underlaid with 12.5 ml of room temperature Lymphoprep density separation media (Nycomed; Pharma AS; Density 1.077 g/ml). The tubes were centrifuged for thirty minutes at 600×g. The interface of the two phases was collected, pooled and washed in DPBS. The cell density of the resultant solution was measured by hemocytometer, as known in the art. Viability was measured by trypan blue exclusion, as known in the art. […]\nCD4+ T cells were prepared from frozen aliquots of the peripheral blood cell samples used to prepare the dendritic cells, using reagents provided by the Dynal CD4+ T-cell enrichment kit (Dynal). The resultant CD4+ cell solution was centrifuged, resuspended in AIMV media and the cell density was determined using methods known in the art. […]"}, "[6]": {"test_system": "HLA-DR and -DQ antigens", "test": "HLA association with response to epitope peptide #40", "set-up": "species or system human", "conditions": "for percent non-responsive / percent responsive / relative risk: 186 donors", "procedure": "The HLA-DR and DQ expression of all the donors tested in both rounds of assay testing described above were assessed using a commercially available PCR-based HLA typing kit (Bio-Synthesis). The phenotypic frequencies of individual HLA-DR and -DQ antigens among responders and non-responders to peptide #40 were tested using a chi-squared analysis with 1 degree of freedom. The increased or decreased likelihood of reacting to epitope #40, the relative risk, was calculated wherever the HLA antigen in question was present in both responding and non-responding donor samples.\nA total of 186 donors were completely HLA typed, and were included in the analysis for epitope peptide #40.\nThe magnitude of the proliferative response to peptide #40 in responders and non-responders expressing HLA-DQ6 was also analyzed. […] As a control, non-responders to the peptide returned the same level of proliferation the peptide regardless of their expression of HLA-DQ6."}},
  "data": [
    {"substance": "CSLCLNGTVHLSCQE (listed as Homo sapiens) [SEQ ID NO:107]", "values": [
      {"measurement": "epitope identification", "setting": "[1]", "value": "significant epitope"}
    ]},
    {"substance": "FRVYSNFLRGKLKLY (listed as Homo sapiens) [peptide #48]", "values": [
      {"measurement": "epitope identification", "setting": "[2]", "value": "Epitopes of interest"}
    ]},
    {"substance": "RAPPTTAVPSRTSLVLTL (listed as Homo sapiens) [peptide #45]", "values": [
      {"measurement": "response", "setting": "[3]; TPO epitope #45 critical residue testing, FIG. 9", "value": "9.18±1.82", "unit": "%"},
      {"measurement": "epitope identification", "setting": "[3]; entire TPO molecule, 99 donors, FIG. 8", "value": "epitope of interest"}
    ]},
    {"substance": "SGLRSLTTLLRALGA (listed as Homo sapiens) [peptide #34]", "values": [
      {"measurement": "epitope identification", "setting": "[2]", "value": "Epitopes of interest"}
    ]},
    {"substance": "peptide #1: 15mer peptide of human IFN-β pepset, SEQ ID NO:2 (MSYNLLGFLQRSSNF)", "values": [
      {"measurement": "status on additional testing", "setting": "[4]", "value": "non-statistically relevant"},
      {"measurement": "percent response", "setting": "[5]", "value": "≥ 9.51", "unit": "%"}
    ]},
    {"substance": "peptide #27: 15mer peptide of human IFN-β pepset, SEQ ID NO:28 (WNETIVENLLANVYR)", "values": [
      {"measurement": "status on additional testing", "setting": "[4]", "value": "non-statistically relevant"}
    ]},
    {"substance": "peptide #40: 15mer peptide of human IFN-β pepset, SEQ ID NO:41; identified CD4+ T-cell epitope (SSLHLKRYYGRILHY)", "values": [
      {"measurement": "donor response percent", "setting": "[4]; 103 donor samples", "value": 15, "unit": "%"},
      {"measurement": "percent response", "setting": "[5]", "value": 18.18, "unit": "%"},
      {"measurement": "magnitude of the proliferative response in responders expressing HLA-DQ6 versus responders not expressing HLA-DQ6", "setting": "[6]; FIG. 6, responder = stimulation index greater than 2.95", "value": "significantly higher"},
      {"measurement": "percent non-responsive", "setting": "[6]; HLA-DQ6", "value": 25, "unit": "%"},
      {"measurement": "percent responsive", "setting": "[6]; HLA-DQ6", "value": 61, "unit": "%"},
      {"measurement": "relative risk", "setting": "[6]; HLA-DQ6", "value": 3.58},
      {"measurement": "percent non-responsive", "setting": "[6]; HLA-DR1", "value": 3, "unit": "%"},
      {"measurement": "percent responsive", "setting": "[6]; HLA-DR1", "value": 17, "unit": "%"},
      {"measurement": "relative risk", "setting": "[6]; HLA-DR1", "value": 0.19},
      {"measurement": "percent non-responsive", "setting": "[6]; HLA-DR15", "value": 15, "unit": "%"},
      {"measurement": "percent responsive", "setting": "[6]; HLA-DR15", "value": 39, "unit": "%"},
      {"measurement": "relative risk", "setting": "[6]; HLA-DR15", "value": 2.68}
    ]}
  ]
}
